Patent US20190029257A1, “APPLICATION FOR HERBICIDE-TOLERANT PROTEIN” (BEIJING DABEINONG TECHNOLOGY GROUP CO., LTD., priority 2016, published 2019)

Assays:
[1] = system: transgenic soybean plants (ALT-1, ALT-2 and ALT-3); test: Halosulfuron-methyl tolerance of soybean plants; assay type: in vivo; settings: 34 g ai/ha; summary of Table 3
Experimental: Gm cytoplasmic ALT-1-01 soybean plants, Gm chloroplastic ALT-1-01 soybean plants, Gm cytoplasmic ALT-2-01 soybean plants, Gm chloroplastic ALT-2-01 soybean plants, Gm cytoplasmic ALT-3-01 soybean plants, Gm chloroplastic ALT-3-01 soybean plants and wild-type soybean plants were respectively taken and sprayed with halosulfuron-methyl (34 g ai/ha, 1-fold field concentration) and a blank solvent (water). The damage degree caused by the herbicide was measured for each plant according to the leaf curl degree and the growth point damage degree 3 days after spraying (3 DAT), 7 days after spraying (7 DAT), 14 days after spraying (14 DAT) and 21 days after spraying (21 DAT), respectively: considering conditions of leaves being flat as the untreated plants and growth points being intact as having a damage degree of 0%; considering conditions of veins being locally browned, new leaves being malformed and plant growth being slow as having a damage degree of 50%; and considering conditions of veins being purple to whole plant being dead and growth points being browned and dry as having a damage degree of 100%. […]

[2] = system: wild-type Arabidopsis thaliana plants; test: Herbicide tolerance of Arabidopsis thaliana plants (spray, resistance classes counted); assay type: in vivo
From the text: T1 transformants were initially selected from the background of untransformed seeds using a glufosinate selection scheme. About 40000 T1 seeds were screened, and 380 T1 positive transformants (PAT gene) were identified with a transformation efficiency of about 0.95%. The plants that were transformed with the recombinant expression vector DBN100632 were Arabidopsis thaliana plants having an ALT-1-01 nucleotide sequence located in the cytoplasm introduced (At cytoplasmic ALT-1-01), and the plants that were transformed with the recombinant expression vector DBN100631 were Arabidopsis thaliana plants having an ALT-1-01 nucleotide sequence located in the chloroplast introduced (At chloroplastic ALT-1-01); the plants that were transformed with the recombinant expression vector DBN100634 were Arabidopsis thaliana plants having an ALT-2-01 nucleotide sequence located in the cytoplasm introduced (At cytoplasmic ALT-2-01), and the plants that were transformed with the recombinant expression vector DBN100633 were Arabidopsis thaliana plants having an ALT-2-01 nucleotide sequence located in the chloroplast introduced (At chloroplastic ALT-2-01); and the plants that were transformed with the recombinant expression vector DBN100636 were Arabidopsis thaliana plants having an ALT-3-01 nucleotide sequence located in the cytoplasm introduced (At cytoplasmic ALT-3-01), and the plants that were transformed with the recombinant expression vector DBN100635 were Arabidopsis thaliana plants having an ALT-3-01 nucleotide sequence located in the chloroplast introduced (At chloroplastic ALT-3-01). The herbicide tolerance effects of At cytoplasmic ALT-1-01 T1 plants, At chloroplastic ALT-1-01 T1 plants, At cytoplasmic ALT-2-01 T1 plants, At chloroplastic ALT-2-01 T1 plants, At cytoplasmic ALT-3-01 T1 plants, At chloroplastic ALT-3-01 T1 plants and wild-type Arabidopsis thaliana plants on halosulfuron-methyl were detected (14 days after sowing), respectively.
At cytoplasmic ALT-1-01 T1 plants, At chloroplastic ALT-1-01 T1 plants, At cytoplasmic ALT-2-01 T1 plants, At chloroplastic ALT-2-01 T1 plants, At cytoplasmic ALT-3-01 T1 plants, At chloroplastic ALT-3-01 T1 plants and wild-type Arabidopsis thaliana plants were sprayed with halosulfuron-methyl (34 g ai/ha, 1-fold field concentration) and a blank solvent (water), respectively. Plants were counted for the resistance situations 14 days after spraying: those having a consistent growth status with the blank solvent (water) group after 14 days were classified as highly resistant plants, those having a bolting height less than ½ of that of the blank solvent (water) group after 14 days were classified as moderately resistant plants, those still not capable of bolting after 14 days were classified as poorly resistant plants, and those dead after 14 days were classified as non-resistant plants. Since each Arabidopsis thaliana T1 plant was an independent transformation event, a significant difference in individual T1 responses could be expected at a given dose.
At cytoplasmic ALT-1-01 T1 plants, At chloroplastic ALT-1-01 T1 plants, At cytoplasmic ALT-2-01 T1 plants, At chloroplastic ALT-2-01 T1 plants, At cytoplasmic ALT-3-01 T1 plants, At chloroplastic ALT-3-01 T1 plants and wild-type Arabidopsis thaliana plants in Example 4 were sprayed with iodosulfuron-methyl (10 g ai/ha, 1-fold field concentration), mesosulfuron (14 g ai/ha, 1-fold field concentration) and oxasulfuron (60 g ai/ha, 1-fold field concentration), respectively, in addition to halosulfuron-methyl (34 g ai/ha, 1-fold field concentration) and the blank solvent (water). […]

[3] = 18 g ai/ha (1x Hal.), number of plants 14 days after spraying, Total 32

In the case of `COC(=O)c1c(Cl)nn(C)c1S(=O)(=O)NC(=O)Nc1nc(OC)cc(OC)n1` [halosulfuron-methyl, 3-chlorine-5-(4,6-dimethoxypyrimidine-2-aminocarbonylaminosulphonyl)-1-methylpyrazole-4-carboxylic acid methyl ester], the “tolerance of the plants to the herbicide” value [1] is reported as “high level of halosulfuron-methyl herbicide tolerance”, the Highly resistant [2, 3] is reported as 0 and the Moderately resistant [2, 3] is reported as 0. The Non-resistant [2, 3] was 32, the Poorly resistant [2, 3] was 0 and the “tolerance of the plants to the herbicide” value ([2]; 34 g ai/ha, summary of Table 1 and FIG. 4) was “none of the wild-type Arabidopsis thaliana plants was tolerant”.
